For 21 compounds, IC50 and inhibition results are on record in ChEMBL document CHEMBL1137315, “7-Aroyl-aminoindoline-1-sulfonamides as a novel class of potent antitubulin agents” (J Med Chem, 2006).

Assay [1] deals with TSGH 9201. Nature of the assay: Cytotoxicity against human TSGH cell line by methylene blue dye assay. It counts as functional, cell-based.
For assay [2], the target named is T1, Tubulin (Homo sapiens) (UniProt P68371+Q9H4B7+P0DPH7+P68366+Q13509+Q71U36+P04350+Q3ZCM7+P07437+P68363+Q9BQE3+Q6PEY2+Q13885+Q9BVA1+Q9BUF5). Nature of the assay: Inhibition of [3H]colchicine binding to tubulin at 5 uM. It counts as protein-complex assay.
The test system of assay [3] is NCI-H460. The assay is described as follows: Cytotoxicity against human H460 cell line by methylene blue dye assay. It counts as functional, cell-based.
Assay [4] relates to KB. Nature of the assay: Cytotoxicity against KB-VIN 10 cell line by methylene blue dye assay. Conditions: Homo sapiens. It counts as functional, cell-based.
In assay [5] the target is T1, Tubulin (Homo sapiens). The assay is described as follows: Inhibition of [3H]colchicine binding to tubulin at 1 uM. It counts as protein-complex assay.
Assay [6] concerns HT-29. The assay is described as follows: Cytotoxicity against human HT29 cell line by methylene blue dye assay. The format is functional, cell-based.
For assay [7], the target named is Tubulin. Nature of the assay: Inhibition of tubulin polymerization. It counts as functional, Homo sapiens.
Assay [8] has as its system MKN-45. Nature of the assay: Cytotoxicity against human MKN45 cell line by methylene blue dye assay. It counts as functional, cell-based.
Assay [9] relates to KB. Nature of the assay: Cytotoxicity against human KB cell line by methylene blue dye assay. It counts as functional, cell-based.

The structures appear in SMILES notation.

One may read the IC50 as the concentration that gives 50% inhibition. Higher therefore signals weaker potency. Usually inhibition stands for how much of the control response was suppressed. High values mean strong suppression, low ones little suppression.

Regarding `COc1ccc(S(=O)(=O)N2CCc3cccc(NC(=O)c4ccncc4)c32)cc1`, the IC50 was found to be 10.8 nM in [1]; 9.4 nM in assay [3]; 8.9 nM in assay [4]; 8.6 nM in assay [6]; 1100 nM in assay [7]; 8.8 nM in assay [8]. The compound also returned an IC50 in assay [9] of 9.6 nM. The results for the inhibition in assay [2] and in assay [5] were 96% and 78%, respectively.

In the case of `COc1ccc(C(=O)Nc2cccc3c2N(S(=O)(=O)c2ccc(OC)cc2)CC3)cc1`, the IC50 amounted to 1600 nM in [8] and 2600 nM in [9].

In the case of `COc1ccc(S(=O)(=O)N2CCc3cccc(NC(=O)Oc4ccccc4)c32)cc1`, the IC50 in assay [8] and in assay [9] was greater than 10000 nM in each case.

Take `COc1ccc(S(=O)(=O)N2CCc3cccc(NC(=O)c4ccc([N+](=O)[O-])cc4)c32)cc1`: the IC50 in assay [1] amounted to 116 nM; in [3], 122 nM; in assay [4], 95 nM; in assay [6], 65 nM; in assay [7], 1900 nM; in assay [8], 95 nM. Also, in assay [9], half-maximal inhibition (IC50) required 102 nM. For the same compound, the inhibition is 91% in assay [2] and 62% in assay [5].

As to `COc1ccc(S(=O)(=O)N2CCc3cccc(N)c32)cc1`, the half-inhibitory concentration (IC50) was 1200 nM in assay [8] and 2800 nM in assay [9].

Turning to `COc1ccc(S(=O)(=O)N2CCc3cc(Br)cc(NC(=O)c4ccncc4)c32)cc1`, the IC50 amounted to 86 nM in assay [8] and 91 nM in [9].

As for `COc1ccc(S(=O)(=O)N2CCc3cccc(NCc4ccccc4)c32)cc1`, the IC50 in [1] is greater than 10000 nM; in assay [3] it was greater than 10000 nM; in assay [4], greater than 10000 nM; in assay [6] it was greater than 10000 nM; in assay [7], greater than 5000 nM; in assay [8] it was greater than 10000 nM. For the same compound, the 50% inhibitory concentration (IC50) in assay [9] is greater than 10000 nM.

`COc1ccc(S(=O)(=O)N2CCc3cccc(NC(=O)c4ccco4)c32)cc1`: the IC50 in assay [1] turned out to be 11.1 nM; in [3], 9.8 nM; in assay [4] it was 9.2 nM; in assay [6], 9.5 nM; in assay [7] it was 1200 nM; in assay [8] it was 10.7 nM. The compound also displayed an IC50 in [9] of 9.6 nM. The inhibition was 95% in assay [2] and 74% in assay [5].

Regarding `COc1ccc(S(=O)(=O)N2CCc3cc(Br)cc(NC(=O)c4ccco4)c32)cc1`, the figures for the IC50 in assay [8] and in [9] were 78 nM and 89 nM, respectively.

Regarding `COc1ccc(S(=O)(=O)N2CCc3cccc(NC(=O)c4ccc(F)cc4)c32)cc1`, the IC50 was determined as 100 nM in assay [1]; 95 nM in assay [3]; 85 nM in [4]; 55 nM in assay [6]; 1500 nM in assay [7]; 45 nM in assay [8]. Besides, half-maximal inhibition in assay [9] (IC50) required 93 nM. In addition, the inhibition in assay [2] amounted to 93%; in [5] it was 65%.

Turning to `COC(=O)c1ccc(C(=O)Nc2cccc3c2N(S(=O)(=O)c2ccc(OC)cc2)CC3)cc1`, the IC50 in [8] was 312 nM; in [9], 376 nM.

In the case of `COc1ccc(S(=O)(=O)N2CCc3cccc(NC(=O)c4ccccc4)c32)cc1`, the IC50 is 201 nM in assay [1]; 257 nM in [3]; 180 nM in assay [4]; 192 nM in assay [6]; 250 nM in assay [8]; 297 nM in assay [9].

Take `COc1ccc(S(=O)(=O)N2CCc3cccc(NS(=O)(=O)c4ccc(F)cc4)c32)cc1`: the IC50 stood at 890 nM in [8] and 1200 nM in [9].

On to `COc1ccc(S(=O)(=O)N2CCc3cccc(NC(C)=O)c32)cc1`, for which the IC50 in assay [1] amounted to 103 nM; in assay [3], 75 nM; in assay [4], 90 nM; in assay [6], 51 nM; in [7], 1900 nM; in assay [8] it was 61 nM. Inhibition in assay [9] was half-maximal at 89 nM (IC50). Also, the values for the inhibition in assay [2] and in assay [5] were 86% and 57%, respectively.

Turning to `COc1ccc(S(=O)(=O)N2CCc3cccc(NS(=O)(=O)c4ccccc4)c32)cc1`, the half-inhibitory concentration (IC50) in [8] came to 562 nM; in assay [9], 650 nM.

As to `COc1ccc(S(=O)(=O)N2CCc3cccc(NC(=O)c4cccs4)c32)cc1`, the IC50 worked out at 54 nM in assay [1]; 49 nM in assay [3]; 43 nM in [4]; 37 nM in [6]; 1700 nM in assay [7]; 31 nM in [8]. The compound also showed a 50% inhibitory concentration (IC50) in [9] of 47 nM. Further, the values for the inhibition in assay [2] and in assay [5] were 94% and 75%, respectively.

Consider `COc1cc2c(c(OC)c1OC)-c1ccc(OC)c(=O)cc1[C@@H](NC(C)=O)CC2` [COLCHICINE], for which the IC50 in assay [4] was 117 nM; in assay [8], 15 nM; in assay [9] it was 13.3 nM.

For the compound `COc1ccc(S(=O)(=O)N2CCc3cccc(NC(=O)C(C)(C)C)c32)cc1`, the 50% inhibitory concentration (IC50) in assay [8] is 289 nM; in assay [9], 359 nM.

Regarding `COc1ccc(S(=O)(=O)N2CCc3cccc(NC(=O)c4ccc(C#N)cc4)c32)cc1`, the IC50 was found to be 89 nM in assay [8] and 105 nM in [9].

With `COc1ccc(S(=O)(=O)N2CCc3cccc(NC(=O)N(C)c4ccccc4)c32)cc1`, the IC50 in [8] and in assay [9] was greater than 10000 nM in each case.

In the case of `COc1ccc(S(=O)(=O)N2CCc3cccc(NS(=O)(=O)c4ccc([N+](=O)[O-])cc4)c32)cc1`, the IC50 in assay [8] was 933 nM; in assay [9] it was 1100 nM.
